US7253318B2, “Benzyloxy derivatives as MAOB inhibitors” (Hoffman-La Roche Inc., priority 2004, dated 2007)

Experiments:
human MAO-B = target: T1, human MAO-B (Homo sapiens, UniProt P27338); assay: MAO-B enzymatic activity, spectrophotometric assay (Amplex Red, tyramine substrate) on membranes of transfected EBNA cells; format: biochemical; details: membranes of EBNA cells transfected with human MAO-B cDNA, 30 min preincubation at 37° C., pH 7.4
T1 construct: expressed in transfected cells; host or cells: EBNA cells (transient transfection), membrane preparation
T1 sequence (P27338 1-520): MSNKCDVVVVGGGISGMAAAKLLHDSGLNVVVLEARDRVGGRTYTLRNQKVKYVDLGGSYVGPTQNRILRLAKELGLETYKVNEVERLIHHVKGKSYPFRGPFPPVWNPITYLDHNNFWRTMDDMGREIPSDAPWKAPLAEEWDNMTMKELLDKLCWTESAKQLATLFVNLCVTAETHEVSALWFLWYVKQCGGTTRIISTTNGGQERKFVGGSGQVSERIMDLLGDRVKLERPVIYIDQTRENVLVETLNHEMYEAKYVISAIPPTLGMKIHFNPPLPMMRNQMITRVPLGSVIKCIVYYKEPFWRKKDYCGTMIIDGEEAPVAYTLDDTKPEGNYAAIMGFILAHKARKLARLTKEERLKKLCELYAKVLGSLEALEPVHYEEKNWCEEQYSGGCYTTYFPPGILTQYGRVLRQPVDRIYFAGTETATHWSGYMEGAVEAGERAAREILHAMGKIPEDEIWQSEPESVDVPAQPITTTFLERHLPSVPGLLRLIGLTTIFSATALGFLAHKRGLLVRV
Experimental: (§1) The cDNA's encoding human MAO-A and MAO-B were transiently transfected into EBNA cells using the procedure described by Schlaeger and Christensen [Cytotechnology 15:1-13 (1998)]. After transfection, cells were homogenised by means of a Polytron homogenizer in 20 mM Tris HCl buffer, pH 8.0, containing 0.5 mM EGTA and 0.5 mM phenylmethanesulfonyl fluoride. Cell membranes were obtained by centrifugation at 45,000×g and, after two rinsing steps with 20 mM Tris HCl buffer, pH 8.0, containing 0.5 mM EGTA, membranes were eventually re-suspended in the above buffer and aliquots stored at −80° C. until use.
(§2) MAO-A and MAO-B enzymatic activity was assayed in 96-well-plates using a spectrophotometric assay adapted from the method described by Zhou and Panchuk-Voloshina [Analytical Biochemistry 253:169-174 (1997)]. Briefly, membrane aliquots were incubated in 0.1 M potassium phosphate buffer, pH 7.4, for 30 min at 37° C. with or without various concentrations of the compounds. After this period, the enzymatic reaction was started by the addition of the MAO substrate tyramine together with 1 U/ml horse-radish peroxidase (Roche Biochemicals) and 80 μM N-acetyl-3,7,-dihydroxyphenoxazine (Amplex Red, Molecular Probes). The samples were further incubated for 30 min at 37° C. in a final volume of 200 μl and absorbance was then determined at a wavelength of 570 nm using a SpectraMax plate reader (Molecular Devices). Background (non-specific) absorbance was determined in the presence of 10 μM clorgyline for MAO-A or 10 μM L-deprenyl for MAO-B.
(§3) IC50 values were determined from inhibition curves obtained using nine inhibitor concentrations in duplicate, by fitting data to a four parameter logistic equation using a computer program.

human MAO-A = target: T2, human MAO-A (Homo sapiens, UniProt P21397); assay: MAO-A enzymatic activity, spectrophotometric assay (Amplex Red, tyramine substrate) on membranes of transfected EBNA cells; format: biochemical; details: membranes of EBNA cells transfected with human MAO-A cDNA, 30 min preincubation at 37° C., pH 7.4
T2 construct: expressed in transfected cells; host or cells: EBNA cells (transient transfection), membrane preparation
T2 sequence (P21397 1-527): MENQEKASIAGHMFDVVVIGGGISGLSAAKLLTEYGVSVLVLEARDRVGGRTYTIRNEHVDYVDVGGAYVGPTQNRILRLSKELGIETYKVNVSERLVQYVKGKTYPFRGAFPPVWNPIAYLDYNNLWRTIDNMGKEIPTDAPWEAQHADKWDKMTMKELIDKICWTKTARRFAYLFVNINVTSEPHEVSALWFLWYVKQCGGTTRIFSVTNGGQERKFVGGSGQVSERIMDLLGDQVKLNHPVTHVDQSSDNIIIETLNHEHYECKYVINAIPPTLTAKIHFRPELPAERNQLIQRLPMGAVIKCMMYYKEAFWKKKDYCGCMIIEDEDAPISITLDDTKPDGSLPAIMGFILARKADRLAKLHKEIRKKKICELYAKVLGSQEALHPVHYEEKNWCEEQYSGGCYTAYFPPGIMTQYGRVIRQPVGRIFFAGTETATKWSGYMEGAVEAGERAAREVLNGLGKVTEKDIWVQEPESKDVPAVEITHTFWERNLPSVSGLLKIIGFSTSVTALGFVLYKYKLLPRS
Experimental: as §1, §2, §3

Compound | IC50 (human MAO-B) | IC50 (human MAO-A)
CNC(=O)C(C)Oc1ccc(OCc2cccc(F)c2)cc1 (racemic) [Example 11, (RS)-2-[4-(3-Fluoro-benzyloxy)-phenoxy]-N-methyl-propionamide] | 0.031 µM | > 10 µM
CNC(=O)C(C)Oc1ccc(OCc2cccc(Cl)c2)cc1 (racemic) [Example 12, (RS)-2-[4-(3-Chloro-benzyloxy)-phenoxy]-N-methyl-propionamide] | 0.015 µM | > 10 µM
CNC(=O)C(C)Oc1ccc(OCc2ccc(C#N)cc2)cc1 (racemic) [Example 14, (RS)-2-[4-(4-Cyano-benzyloxy)-phenoxy]-N-methyl-propionamide] | 0.031 µM | > 10 µM
CCC(Oc1ccc(OCc2cccc(F)c2)cc1)C(=O)NC (racemic) [Example 17, (RS)-2-[4-(3-Fluoro-benzyloxy)-phenoxy]-N-methyl-butyramide] | 0.056 µM | > 10 µM
CCC(Oc1ccc(OCc2cccc(Cl)c2)cc1)C(=O)NC (racemic) [Example 18, (RS)-2-[4-(3-Chloro-benzyloxy)-phenoxy]-N-methyl-butyramide] | 0.028 µM | > 10 µM
CCC(Oc1ccc(OCc2ccc(C#N)cc2)cc1)C(=O)NC (racemic) [Example 19, (RS)-2-[4-(4-Cyano-benzyloxy)-phenoxy]-N-methyl-butyramide] | 0.074 µM | > 10 µM
CNC(=O)C(C)Oc1ccc(OCc2cccc(Cl)c2)cc1 (single isomer, unassigned) [Example 13, (S or R)-2-[4-(3-Chloro-benzyloxy)-phenoxy]-N-methyl-propionamide] | 0.009 µM | > 10 µM
CNC(=O)COc1ccc(OCc2ccccc2)cc1 [Example 2, 2-(4-Benzyloxy-phenoxy)-N-methyl-acetamide] | 0.052 µM | > 10 µM
CNC(=O)COc1ccc(OCc2ccc(C#N)cc2)cc1 [Example 3, 2-[4-(4-Cyano-benzyloxy)-phenoxy]-N-methyl-acetamide] | 0.028 µM | 2.86 µM
CNC(=O)COc1ccc(OCc2ccc(Cl)cc2)cc1 [Example 4, 2-[4-(4-Chloro-benzyloxy)-phenoxy]-N-methyl-acetamide] | 0.012 µM | 2.44 µM
CNC(=O)COc1ccc(OCc2ccccc2F)cc1 [Example 5, 2-[4-(2-Fluoro-benzyloxy)-phenoxy]-N-methyl-acetamide] | 0.081 µM | > 9 µM
CNC(=O)COc1ccc(OCc2cccc(F)c2)cc1 [Example 6, 2-[4-(3-Fluoro-benzyloxy)-phenoxy]-N-methyl-acetamide] | 0.021 µM | > 10 µM
CNC(=O)COc1ccc(OCc2ccc(F)cc2)cc1 [Example 7, 2-[4-(4-Fluoro-benzyloxy)-phenoxy]-N-methyl-acetamide] | 0.009 µM | 5.4 µM
NC(=O)CCOc1ccc(OCc2cccc(F)c2)cc1 [Example 23, 3-[4-(3-Fluoro-benzyloxy)-phenoxy]-propionamide] | 0.044 µM | > 10 µM
NC(=O)OCCc1ccc(OCc2cccc(F)c2)cc1 [Example 24, Carbamic acid 2-[4-(3-fluoro-benzyloxy)-phenyl]-ethyl ester] | 0.068 µM | > 10 µM
CNC(=O)OCc1ccc(OCc2cccc(F)c2)cc1 [Example 26, Methyl-carbamic acid 4-(3-fluoro-benzyloxy)-benzyl ester] | 0.089 µM | > 10 µM
NC(=O)COCc1ccc(OCc2cccc(F)c2)cc1 [Example 27, 2-[4-(3-Fluoro-benzyloxy)-benzyloxy]-acetamide] | 0.051 µM | > 10 µM
